Key:
[1] = xn = mol fraction of the nth substance listed; details: 101 kPa, Liquid, Capillary tube (Ostwald / Ubbelohde) method
[2] = 101.33 kPa, Liquid, Capillary tube (Ostwald / Ubbelohde) method

CCC(C)Cl (stereo unspecified) [2-chlorobutane] + CCC(C)CC
kinematic viscosity [m2/s], [1]
Details | 283.15 K | 298.15 K | 313.15 K
x2 = 0.0518 | 5.193e-07 | 4.574e-07 | 4.031e-07
x2 = 0.101 | 5.142e-07 | 4.542e-07 | 4.004e-07
x2 = 0.2014 | 5.066e-07 | 4.483e-07 | 3.958e-07
x2 = 0.3025 | 4.995e-07 | 4.431e-07 | 3.919e-07
x2 = 0.4027 | 4.943e-07 | 4.39e-07 | 3.885e-07
x2 = 0.4998 | 4.906e-07 | 4.362e-07 | 3.865e-07
x2 = 0.6043 | 4.881e-07 | 4.345e-07 | 3.851e-07
x2 = 0.7008 | 4.87e-07 | 4.34e-07 | 3.844e-07
x2 = 0.8004 | 4.874e-07 | 4.337e-07 | 3.847e-07
x2 = 0.8981 | 4.897e-07 | 4.344e-07 | 3.858e-07
x2 = 0.9481 | 4.911e-07 | 4.356e-07 | 3.868e-07

CCC(C)Cl (stereo unspecified) [2-chlorobutane] + CCCCCC
kinematic viscosity [m2/s], [1]
Details | 283.15 K | 298.15 K | 313.15 K
x1 = 0.0509 | 5.186e-07 | 4.579e-07 | 4.034e-07
x1 = 0.1002 | 5.147e-07 | 4.548e-07 | 4.012e-07
x1 = 0.1802 | 5.09e-07 | 4.501e-07 | 3.98e-07
x1 = 0.3029 | 5.025e-07 | 4.448e-07 | 3.948e-07
x1 = 0.4045 | 4.989e-07 | 4.42e-07 | 3.932e-07
x1 = 0.4991 | 4.975e-07 | 4.408e-07 | 3.926e-07
x1 = 0.5974 | 4.968e-07 | 4.401e-07 | 3.926e-07
x1 = 0.6992 | 4.982e-07 | 4.406e-07 | 3.939e-07
x1 = 0.7996 | 5.007e-07 | 4.419e-07 | 3.961e-07
x1 = 0.8981 | 5.055e-07 | 4.447e-07 | 3.993e-07
x1 = 0.9477 | 5.086e-07 | 4.465e-07 | 4.015e-07

CCC(C)Cl (stereo unspecified) [2-chlorobutane] + CCCCCCC
kinematic viscosity [m2/s], [1]
Details | 283.15 K | 298.15 K | 313.15 K
x1 = 0.0506 | 5.287e-07 | 4.649e-07 | 4.086e-07
x1 = 0.0989 | 5.334e-07 | 4.686e-07 | 4.121e-07
x1 = 0.2012 | 5.44e-07 | 4.78e-07 | 4.202e-07
x1 = 0.3016 | 5.558e-07 | 4.876e-07 | 4.283e-07
x1 = 0.3997 | 5.677e-07 | 4.978e-07 | 4.37e-07
x1 = 0.4984 | 5.812e-07 | 5.087e-07 | 4.461e-07
x1 = 0.5994 | 5.966e-07 | 5.206e-07 | 4.558e-07
x1 = 0.6994 | 6.128e-07 | 5.331e-07 | 4.652e-07
x1 = 0.7996 | 6.304e-07 | 5.467e-07 | 4.757e-07
x1 = 0.9006 | 6.496e-07 | 5.609e-07 | 4.866e-07
x1 = 0.9503 | 6.6e-07 | 5.684e-07 | 4.927e-07

CCC(C)CC [3-methylpentane]
[2]
Details | kinematic viscosity [m2/s]
283.15 K | 4.928e-07
298.15 K | 4.366e-07
313.15 K | 3.881e-07

CCC(C)CC [3-methylpentane] + CCCCCl
kinematic viscosity [m2/s], [1]
Details | 283.15 K | 298.15 K | 313.15 K
x1 = 0.0518 | 5.496e-07 | 4.734e-07 | 4.175e-07
x1 = 0.094 | 5.448e-07 | 4.704e-07 | 4.155e-07
x1 = 0.2038 | 5.326e-07 | 4.622e-07 | 4.088e-07
x1 = 0.304 | 5.228e-07 | 4.553e-07 | 4.036e-07
x1 = 0.4059 | 5.143e-07 | 4.5e-07 | 3.988e-07
x1 = 0.5021 | 5.075e-07 | 4.453e-07 | 3.952e-07
x1 = 0.5999 | 5.017e-07 | 4.411e-07 | 3.921e-07
x1 = 0.7043 | 4.97e-07 | 4.382e-07 | 3.896e-07
x1 = 0.8049 | 4.945e-07 | 4.365e-07 | 3.884e-07
x1 = 0.9038 | 4.928e-07 | 4.351e-07 | 3.879e-07
x1 = 0.9492 | 4.928e-07 | 4.355e-07 | 3.877e-07

CCCCCCC [heptane]
[2]
Details | kinematic viscosity [m2/s]
283.15 K | 6.697e-07
298.15 K | 5.754e-07
313.15 K | 4.986e-07

CCCCCC [hexane]
[2]
Details | kinematic viscosity [m2/s]
283.15 K | 5.125e-07
298.15 K | 4.493e-07
313.15 K | 4.039e-07
